Measured values published in ChEMBL document CHEMBL1201862, “PubChem BioAssay data set” (2004).
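Interpolation was linear, between the two tested concentrations surrounding the appropriate level; five concentrations were tested over 48 hours in 96-well plates. The concentration for 50% growth inhibition is given as GI50.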 The source made the active and inactive calls. Rule as the data show it: active = GI50 up to about 1.1 µM and inactive = higher.

Columns and labels:
Assay in all cases: growth of human tumour cells (NCI), 48 h
IGROV-1 = test system: IGROV-1
DMS-114 = test system: DMS-114
SNB-78 = test system: SNB-78
UACC-62 = test system: UACC-62
HOP-18 = test system: HOP-18
DMS-273 = test system: DMS-273
MOLT-4 = test system: MOLT-4
U-251 = test system: U-251
NCI-H460 = test system: NCI-H460
HCT-116 = test system: HCT-116
M14 = test system: M14
786-0 = test system: 786-0
COLO 205 = test system: COLO 205
Malme-3M = test system: Malme-3M
TK-10 = test system: TK-10
LOX IMVI = test system: LOX IMVI
OVCAR-5 = test system: OVCAR-5
OVCAR-4 = test system: OVCAR-4
HOP-92 = test system: HOP-92
HCC 2998 = test system: HCC 2998
SNB-19 = test system: SNB-19
A498 = test system: A498
RPMI-8226 = test system: RPMI-8226
UO-31 = test system: UO-31
SF-539 = test system: SF-539
M19-MEL = test system: M19-MEL
K562 = test system: K562
HCT-15 = test system: HCT-15
SNB-75 = test system: SNB-75
CCRF-CEM = test system: CCRF-CEM
UACC-257 = test system: UACC-257
OVCAR-8 = test system: OVCAR-8
KM-20L2 = test system: KM-20L2
SN12C = test system: SN12C
A549 = test system: A549
HOP-62 = test system: HOP-62
SK-OV-3 = test system: SK-OV-3
LXFL 529 = test system: LXFL 529
HT-29 = test system: HT-29
NCI-H23 = test system: NCI-H23
SF-268 = test system: SF-268
EKVX = test system: EKVX
DLD-1 = test system: DLD-1
SR = test system: SR
CAKI-1 = test system: CAKI-1
RXF 393 = test system: RXF 393
XF498 = test system: XF498
OVCAR-3 = test system: OVCAR-3
SK-MEL-5 = test system: SK-MEL-5
SK-MEL-28 = test system: SK-MEL-28
KM12 = test system: KM12
NCI-H522 = test system: NCI-H522
SK-MEL-2 = test system: SK-MEL-2
SW-620 = test system: SW-620
NCI-H226 = test system: NCI-H226
ACHN = test system: ACHN
HL-60 = test system: HL-60
SF-295 = test system: SF-295

In the case of `CN(C(=O)C12C3C4C5C3C1(C(=O)C13C6C7C8C6C1C8C73)C5C42)C(C)(C)C` (stereo not drawn), the GI50 (IGROV-1) is reported as > 50 µM (inactive), the GI50 (DMS-114) is reported as > 23.6 µM (inactive) and the GI50 (SNB-78) is reported as > 50 µM (inactive). The GI50 (UACC-62) was > 50 µM (inactive), the GI50 (HOP-18) was > 50 µM (inactive) and the GI50 (DMS-273) was > 21.4 µM (inactive). The GI50 (MOLT-4) was 29.2 µM (inactive), the GI50 (U-251) was > 50 µM (inactive) and the GI50 (NCI-H460) was > 32.7 µM (inactive). The GI50 (HCT-116) was 9.55 µM (inactive), the GI50 (M14) was > 50 µM (inactive) and the GI50 (786-0) was > 50 µM (inactive). The GI50 (COLO 205) was > 29.8 µM (inactive), the GI50 (Malme-3M) was > 50 µM (inactive) and the GI50 (TK-10) was > 50 µM (inactive). For the same compound, the GI50 (LOX IMVI) was > 21 µM (inactive), the GI50 (OVCAR-5) was > 50 µM (inactive) and the GI50 (OVCAR-4) was > 50 µM (inactive). For the same compound, the GI50 (HOP-92) was > 50 µM (inactive), the GI50 (HCC 2998) was > 50 µM (inactive) and the GI50 (SNB-19) was > 50 µM (inactive). The GI50 (A498) was > 50 µM (inactive), the GI50 (RPMI-8226) was > 27.3 µM (inactive) and the GI50 (UO-31) was > 50 µM (inactive). For the same compound, the GI50 (SF-539) was > 50 µM (inactive), the GI50 (M19-MEL) was > 50 µM (inactive) and the GI50 (K562) was > 25.6 µM (inactive). The GI50 (HCT-15) was greater than 21.3 µM, the GI50 (SNB-75) was > 33 µM (inactive) and the GI50 (CCRF-CEM) was > 24 µM (inactive). The GI50 (UACC-257) was > 50 µM (inactive), the GI50 (OVCAR-8) was > 50 µM (inactive) and the GI50 (KM-20L2) was > 50 µM (inactive). For the same compound, the GI50 (SN12C) was > 50 µM (inactive), the GI50 (A549) was > 30.1 µM (inactive) and the GI50 (HOP-62) was > 50 µM (inactive). The GI50 (SK-OV-3) was > 50 µM (inactive), the GI50 (LXFL 529) was > 50 µM (inactive) and the GI50 (HT-29) was > 37.8 µM (inactive). For the same compound, the GI50 (NCI-H23) was > 50 µM (inactive), the GI50 (SF-268) was > 50 µM (inactive) and the GI50 (EKVX) was > 50 µM (inactive). For the same compound, the GI50 (DLD-1) was > 23.2 µM (inactive), the GI50 (SR) was > 50 µM (inactive) and the GI50 (CAKI-1) was > 50 µM (inactive). For the same compound, the GI50 (RXF 393) was > 50 µM (inactive), the GI50 (XF498) was > 50 µM (inactive) and the GI50 (OVCAR-3) was > 50 µM (inactive). For the same compound, the GI50 (SK-MEL-5) was > 50 µM (inactive), the GI50 (SK-MEL-28) was > 50 µM (inactive) and the GI50 (KM12) was > 50 µM (inactive). For the same compound, the GI50 (NCI-H522) was > 32.4 µM (inactive), the GI50 (SK-MEL-2) was > 50 µM (inactive) and the GI50 (SW-620) was > 20.9 µM (inactive). The GI50 (NCI-H226) was > 50 µM (inactive), the GI50 (ACHN) was > 50 µM (inactive) and the GI50 (HL-60) was > 19.3 µM (inactive). For the same compound, the GI50 (SF-295) was > 50 µM (inactive).

In the case of `CC(=O)NC1=C(Nc2ccc(C)cc2)C(=O)c2ccccc2C1=O`, the GI50 (IGROV-1) is reported as 17.7 µM (inactive), the GI50 (DMS-114) is reported as 14.5 µM (inactive) and the GI50 (SNB-78) is reported as 44.9 µM (inactive). For the same compound, the GI50 (UACC-62) was 10.9 µM (inactive), the GI50 (HOP-18) was 12.2 µM (inactive) and the GI50 (DMS-273) was 16.5 µM (inactive). The GI50 (MOLT-4) was 16.7 µM (inactive), the GI50 (U-251) was 29 µM (inactive) and the GI50 (NCI-H460) was 12.1 µM (inactive). For the same compound, the GI50 (HCT-116) was 19.9 µM (inactive), the GI50 (M14) was 13.5 µM (inactive) and the GI50 (786-0) was 15.4 µM (inactive). The GI50 (COLO 205) was 18.7 µM (inactive), the GI50 (Malme-3M) was 11.5 µM (inactive) and the GI50 (TK-10) was > 75 µM (inactive). For the same compound, the GI50 (LOX IMVI) was 9.53 µM (inactive), the GI50 (OVCAR-5) was 13.3 µM (inactive) and the GI50 (OVCAR-4) was 17.7 µM (inactive). The GI50 (HCC 2998) was 31.7 µM (inactive), the GI50 (SNB-19) was 29.3 µM (inactive) and the GI50 (A498) was 50.2 µM (inactive). The GI50 (RPMI-8226) was 11.7 µM (inactive), the GI50 (UO-31) was 25 µM (inactive) and the GI50 (SF-539) was 16.2 µM (inactive). For the same compound, the GI50 (M19-MEL) was 8.43 µM (inactive), the GI50 (K562) was 18.2 µM (inactive) and the GI50 (HCT-15) was 14.5 µM. The GI50 (SNB-75) was 11.6 µM (inactive), the GI50 (CCRF-CEM) was 17.1 µM (inactive) and the GI50 (UACC-257) was 18 µM (inactive). For the same compound, the GI50 (OVCAR-8) was 25 µM (inactive), the GI50 (KM-20L2) was 24.1 µM (inactive) and the GI50 (SN12C) was 15.9 µM (inactive). For the same compound, the GI50 (A549) was 14.3 µM (inactive), the GI50 (HOP-62) was 17.1 µM (inactive) and the GI50 (SK-OV-3) was > 75 µM (inactive). For the same compound, the GI50 (LXFL 529) was 23.6 µM (inactive), the GI50 (HT-29) was 15.2 µM (inactive) and the GI50 (NCI-H23) was 8.02 µM (inactive). The GI50 (SF-268) was 26.9 µM (inactive), the GI50 (EKVX) was > 75 µM (inactive) and the GI50 (DLD-1) was 19.7 µM (inactive). For the same compound, the GI50 (CAKI-1) was 43.7 µM (inactive), the GI50 (RXF 393) was 23.5 µM (inactive) and the GI50 (XF498) was 24.9 µM (inactive). For the same compound, the GI50 (OVCAR-3) was 16.6 µM (inactive), the GI50 (SK-MEL-5) was 10.2 µM (inactive) and the GI50 (SK-MEL-28) was 17.6 µM (inactive). For the same compound, the GI50 (KM12) was 24.7 µM (inactive), the GI50 (SK-MEL-2) was 21.6 µM (inactive) and the GI50 (SW-620) was 13.5 µM (inactive). The GI50 (NCI-H226) was 14.1 µM (inactive), the GI50 (ACHN) was 17.9 µM (inactive) and the GI50 (HL-60) was 10.2 µM (inactive). For the same compound, the GI50 (SF-295) was 18.2 µM (inactive).
